“Also recorded” adds a separate entry of the source.
Test system: serovar L2 of the Chlamydia trachomatis LGV biovar, serovar D of the trachoma biovar, Chlamydia muridarum
Test: Abnormal inclusions in different host cell types, serovars and Chlamydia species
Type: cell-based
Details: THP-1, RL95-2, HeLa, C. muridarum, penicillin G at 3 hpi
From the text: In blue in the original figure; Hoechst, in green in the original figure: anti-Chlamydia sp. Image taken at 24 hpi (RL95-2/Chlamydia L2; HeLa/Chlamydia-D; HeLa/C. muridarum) or at 48 hpi (THP-1/Chlamydia-L2; THP-1/Chlamydia-D). Scale: 10 μm.
In order to examine whether the effects of penicillin G on bacterial infectivity depend on the strain or the serovar, ATCC serovar L2 and C. trachomatis serovar D, graciously provided by Dr. de Barbeyrac (University of Bordeaux II, Bordeaux, France) were used. C. muridarum was obtained from Dr. Roger Rank (University of Arkansas, Little Rock, Ark., USA). The bacteria were propagated as a matter of routine in HeLa cells as described above and stored at −80° C. before use (Scidmore, M. A. Curr Protoc Microbiol Chapter 1: Unit 11A 11, 2005). The number of inclusion forming units (IFU) was determined by immunofluorescence, as described above (Verbeke, P. et al. PLoS Pathog 2:e45, 2006).
To examine the effects of penicillin G on cell infection with Chlamydia, the host cells were cultivated up to 70% confluence without antibiotics, and then were infected with C. trachomatis strain L2 or D, or with C. muridarum at 1 IFU. The infections were carried out at 37° C. for 90 minutes with centrifugation, followed by a washing of extracellular bacteria. […]

CC1(C)S[C@@H]2[C@H](NC(=O)Cc3ccccc3)C(=O)N2[C@H]1C(=O)O [Penicillin G, benzylpenicillin]
generation of abnormal inclusions in other host cells, serovars, species: independent of the type of host cell, serovar, biovar or even species of Chlamydia bacterium used; also recorded: exhibiting abnormal inclusions
